# Source: patent publication US11911442B2, “Use of soluble pro(renin) receptor to treat metabolic disorders and related conditions” (priority 2017, dated 2024)
# Assays:
# PRR = PRR protein expression and sPRR release in mpkCCD cells; assay type: cell-based, murine; conditions: 10 μM, 24 h
# Method: The effect of […] on PRR expression was tested in […] cells. These cells were grown to confluence in six-well plates. After 12-h serum deprivation, the cells were treated with vehicle or 10 μM TO901317 for 24 h and then were harvested for analysis of PRR expression and sPRR release. In a separate experiment, […] cells at 50% density were transiently transfected with a construct containing the luciferase gene under the control of the 2,016-bp 5' flanking region of the PRR gene. Upon confluence, the transfected cells were treated for 24 h with vehicle or 10 μM TO901317 and then were harvested for analysis of luciferase activity. Urinary or medium sPRR was determined using a commercially sPRR enzyme immunoassay (EIA) kit (catalog no. JP27782; Immuno-Biological Laboratories) according to the manufacturer's instructions. Renal tissues were lysed and subsequently sonicated. Protein concentrations were determined using Coomassie reagent. Forty micrograms of protein from each sample were denatured in boiling water, separated by SDS/PAGE, and transferred onto nitrocellulose membranes. Blots were blocked 1 h with 5% nonfat dry milk in Tris-buffered saline (TBS), followed by overnight incubation with primary antibody. […] The blots were quantitated by using Image-Pro Plus (Media Cybernetics). […]
# pGL3-PRR = assay: PRR-luciferase (pGL3-PRR) reporter assay in mpkCCD cells; assay type: cell-based, murine; conditions: transfected mpkCCD cells, 10 μM, 24 h
# Method: The effect of […] on PRR expression was tested in […] cells. These cells were grown to confluence in six-well plates. After 12-h serum deprivation, the cells were treated with vehicle or 10 μM TO901317 for 24 h and then were harvested for analysis of PRR expression and sPRR release. In a separate experiment, […] cells at 50% density were transiently transfected with a construct containing the luciferase gene under the control of the 2,016-bp 5' flanking region of the PRR gene. Upon confluence, the transfected cells were treated for 24 h with vehicle or 10 μM TO901317 and then were harvested for analysis of luciferase activity. Genomic DNA was extracted from rat tail using a Tissue DNA kit ([…]-01; Promega). A 2,016-bp fragment of the 5' flanking region of the PRR gene (GenBank accession no. NM_001007091; 1,941±75 bp) was amplified from the rat genomic DNA by PCR and subcloned to the pGL3-Basic reporter vector (Promega) using NheI and BgIII restriction sites; this construct was termed “pGL3-PRR.” A 2,084-bp fragment of the 5' flanking region of the AQP2 gene (GenBank accession no. […] Qiagen). […] The vehicle-treated group served as a control. The luciferase activities were measured using a luciferase assay system (Promega), and luminescence was detected by using an illuminometer (BMG FLUOstar OPTIMA).
# C57BL6 mice = assay: TO901317-induced diabetes insipidus in C57/BL6 mice; assay type: in vivo, mouse
# Method: FIGS. 9A-9I show an initial characterization of diuretic and PRR-inhibitory actions of TO901317 in vivo and in vitro. […] The mice receiving vehicle treatment served as a control. At the end of experiment, 24-h urine collection was performed, followed by analysis of urinary sPRR excretion by ELISA and renal PRR expression by immunoblotting. (A) Urine output (n=30 mice per group). (B) Urinary osmolality (n=15 mice per group). (C) Immunoblotting analysis of renal PRR expression (n=15 mice per group). (D) Densitometric analysis of the immunoblot in C. (E) ELISA analysis of urinary sPRR (n=8 mice per group). (F-I) The effect of TO901317 on PRR expression in cultured CD cells. mpkCCD cells were exposed to vehicle or 10 μM TO901317 for 24 h. The cell lysates were subjected to immunoblotting analysis of PRR protein expression, and the medium was assayed for sPRR concentration by using ELISA and normalized by protein content. In a separate experiment, the cells were transfected with a PRR-luciferase construct, allowed to grown to confluence, and then were treated with vehicle or 10 μM TO901317 for 24 h. (F) Immunoblotting analysis of PRR (n=15 per group). (G) Densitometric analysis of the immunoblot in […]. (H) ELISA analysis of medium sPRR (n=10 per group). (I) The luciferase assay (n=5 per group).
# (A) Urine output (n=8 mice per group). (B) Water intake (n=8 mice per group). (C) Water balance (n=8 mice per group). (D) Urinary osmolality (n=8 mice per group). (E) Het (n=8 mice per group).
# AQP2 expression was analyzed by immunoblotting and immunostaining. Urinary renin activity was determined by measuring AngI generation, and urinary prorenin/renin concentration was determined by ELISA. (A) Immunoblotting analysis of AQP2 expression (n=15 mice per group). (B) Densitometric analysis of the immunoblots in A. (C) Urinary renin activity (n=8 mice per group). (D) Urinary prorenin/renin excretion (n=8 mice per group). (E) Schematic illustration of the mechanism by which the LXR agonist TO091317 (TO) suppresses PRR transcription and induces DI. LXRs bound to TO091317 function as a […] repressor for the PRR gene, leading to a reduced PRR/sPRR level that decreases AQP2 expression, ultimately causing DI.
# Besides their well-recognized role in regulating lipid and glucose metabolism, LXRs are potential regulators of the RAS and fluid balance. […] In the initial experiment, the effects of the LXR agonist TO901317 on fluid homeostasis and on renal PRR and urinary renin levels were examined in mice. A 7-d treatment with TO901317 in C57BL6 mice reduced body weight (32.36±0.63 vs. 28.61±0.36 g, P<0.05) and food intake (4.08±0.19 vs. 3.54±0.15 g, P<0.05), although to a lesser extent. […] The expression of renal PRR protein and the excretion of urinary sPRR were examined by immunoblotting and ELISA, respectively.
# In the subsequent experiment, a more detailed analysis of TO901317-induced DI was performed and the causal role of suppressed renal PRR was further examined in this phenomenon. This experiment comprised three groups: control, TO901317-treated, and TO901317+sPRRHis-treated mice. […] Of note, water balance was determined by subtracting urine volume from water intake. AQP2, a major water channel on the apical membrane of the CD, plays a key role in determining urine-concentrating capability. […] ELISA was also performed to determine the prorenin/renin concentration in the urine. Although urinary prorenin/renin excretion was suppressed by TO901317, it was unaffected by sPRRHis (FIG. 11D). […] FIG. 11E provides a schematic illustration of the mechanism by which TO901317 induces DI. Upon binding to TO901317, LXRs function as a transcriptional repressor to inactivate PRR transcription. The reduced PRR/sPRR levels down-regulate AQP2 expression, leading to DI.
# Male 10- to 12-wk-old SD rats and C57BL6 mice were purchased from Charles River Laboratories and the Jackson Laboratory, respectively. All animals […] 50 mg kg body weight-1·d-1. […]
smiles,measurement,setting,value
O=S(=O)(c1ccccc1)N(CC(F)(F)F)c1ccc(C(O)(C(F)(F)F)C(F)(F)F)cc1 [TO901317],reduction of medium sPRR,PRR; ELISA,60%
same,reduction of PRR protein expression,PRR; immunoblotting,85%
same,suppression of luciferase activity (pGL3-PRR),pGL3-PRR,76%
same,"urine output, water intake, water balance, urinary osmolality, Hct","C57BL6 mice; C57/BL6 mice, TO901317 alone, 7 d","polyuria, polydipsia, decreased water balance, hypoosmotic urine, and plasma volume contraction"
same,urinary osmolality,"C57BL6 mice; C57BL6 mice, 7-d treatment",hypoosmotic urine
same,urine output,"C57BL6 mice; C57BL6 mice, 7-d treatment",severe polyuria
same,urinary sPRR excretion,"C57BL6 mice; C57BL6 mice, 7-d treatment, ELISA",suppressed consistently
same,renal PRR expression,"C57BL6 mice; C57BL6 mice, 7-d treatment, immunoblotting",suppressed consistently
same,food intake,"C57BL6 mice; C57BL6 mice, 7-d treatment, control 4.08±0.19, P<0.05",3.54 ± 0.15 g
same,body weight,"C57BL6 mice; C57BL6 mice, 7-d treatment, control 32.36±0.63, P<0.05",28.61 ± 0.36 g
same,urinary renin activity (generation of AngI),"C57BL6 mice; TO901317 alone, 7 d",suppressed
same,urinary prorenin/renin excretion,"C57BL6 mice; TO901317 alone, 7 d, ELISA",suppressed
same,renal AQP2 expression,"C57BL6 mice; TO901317 alone, 7 d, immunoblotting",significantly reduced
